The compounds below were run against mCD22 (Mus musculus, UniProt P35329) (assay: Competition ELISA with biotinylated form of 1, mCD22Fc).
Format: binding, murine

fold less potent than 5 for CD22	SMILES
50 fold	O=C(Cc1ccc(-c2ccc(F)cc2)cc1)NC[C@@H](O)[C@@H](O)[C@@H]1O[C@@](OCc2ccccc2)(C(=O)O)C[C@H](O)[C@H]1NC(=O)CO [Compound 7, Benzyl 3,5,9-trideoxy-5-glycolamido-9-(4′-fluoro-4-biphenyl)acetamido-D-glycero-α-D-galacto-2-nonulopyranosidonic acid]

What follows are compounds tested against T1, hCD22 (Homo sapiens, UniProt P20273) (assay: Competition ELISA).
T1 sequence (P20273 20-326 limits assumed): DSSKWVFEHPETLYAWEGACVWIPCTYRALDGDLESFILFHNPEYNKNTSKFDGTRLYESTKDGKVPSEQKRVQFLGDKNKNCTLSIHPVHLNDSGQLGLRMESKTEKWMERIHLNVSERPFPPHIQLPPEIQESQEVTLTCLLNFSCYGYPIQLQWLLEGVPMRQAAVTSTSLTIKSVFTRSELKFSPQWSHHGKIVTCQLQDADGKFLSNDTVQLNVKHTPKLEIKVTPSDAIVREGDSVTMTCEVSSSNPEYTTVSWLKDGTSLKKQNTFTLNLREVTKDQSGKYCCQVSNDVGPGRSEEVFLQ
Format: binding

IC50	SMILES
3270 ± 620 nM	COc1ccc(O[C@@H]2O[C@H](CO[C@]3(C(=O)O)C[C@H](O)[C@@H](NC(=O)CO)[C@H]([C@H](O)[C@H](O)CNC(=O)Cc4ccc(-c5ccc(O)cc5)cc4)O3)[C@H](O)[C@H](O)[C@H]2O)cc1 [Compound 1, 9-(4'-hydroxy-4-biphenyl)acetamido-9-deoxy-Neu5Gcα2-6GalOMP, reference compound]
3290 ± 330 nM	COc1ccc(O[C@@H]2O[C@H](CO[C@]3(C(=O)O)C[C@H](O)[C@@H](NC(=O)CO)[C@H]([C@H](O)[C@H](O)CNCc4ccc(-c5ccc(O)cc5)cc4)O3)[C@H](O)[C@H](O)[C@H]2O)cc1 [Compound 2, 9-(4'-hydroxy-4-biphenyl)methylamino-9-deoxy-Neu5Gcα2-6GalOMP, reference compound]
240 ± 50 nM	O=C(Cc1ccc(-c2ccc(O)cc2)cc1)NC[C@@H](O)[C@@H](O)[C@@H]1O[C@@](OCc2ccccc2)(C(=O)O)C[C@H](O)[C@H]1NC(=O)CO [Compound 5, benzyl 3,5,9-trideoxy-5-glycolamido-9-(4′-hydroxy-4-biphenyl)acetamido-D-glycero-α-D-galacto-2-nonulopyranosidonic acid]
380 nM	O=C(Cc1ccc(-c2ccc(O)cc2)cc1)NC[C@@H](O)[C@@H](O)[C@@H]1O[C@@](OCc2ccc(-c3ccccc3)cc2)(C(=O)O)C[C@H](O)[C@H]1NC(=O)CO [Compound 6]
2750 ± 1300 nM	O=C(CO)N[C@H]1[C@H]([C@H](O)[C@H](O)CNCc2ccc(-c3ccc(O)cc3)cc2)O[C@@](OCc2ccccc2)(C(=O)O)C[C@@H]1O [Compound 8, Benzyl 3,5,9-trideoxy-5-glycolamido-9-(4′-hydroxy-4-biphenyl)methylamino-D-glycero-α-D-galacto-2-nonulopyranosidonic acid]
2240 ± 280 nM	O=C(CO)N[C@H]1[C@H]([C@H](O)[C@H](O)CNCc2ccc(-c3ccc(O)cc3)cc2)O[C@@](OCc2ccc(-c3ccccc3)cc2)(C(=O)O)C[C@@H]1O [Compound 9, (4-Biphenyl)methyl 3,5,9-trideoxy-5-glycolamido-9-(4′-hydroxy-4-biphenyl) methylamino-D-glycero-α-D-galacto-2-nonulopyranosidonic acid]
